# How the values were obtained:
# Format in all cases: in vivo
# [1] = test system: rice (Oryza sativa); assay: Test B flooded paddy test, visual plant response rating; details: 250 g ai/ha, Flood, applied to paddy water, 2-leaf stage, evaluated after 13 to 15 days
# In short: (§1)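 At the two-leaf stage, seedlings received compound applied to paddy water flooded 3 cm above soil, a level sustained until assessment. Greenhouse incubation lasted 13 to 15 days before visual comparison with control plants.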
# [2] = test system: ducksalad (Heteranhera limosa); assay: as above; details: 250 g ai/ha, Flood, applied to paddy water, 2-leaf stage, evaluated after 13 to 15 days
# In short: as §1
# [3] = test system: barnyardgrass (Echinochloa crus-galli); assay: as above; details: 250 g ai/ha, Flood, applied to paddy water, 2-leaf stage, evaluated after 13 to 15 days
# In short: as §1
# [4] = test system: sedge, umbrella (small-flower umbrella sedge, Cyperus difformis); assay: as above; details: 250 g ai/ha, Flood, applied to paddy water, 2-leaf stage, evaluated after 13 to 15 days
# In short: as §1
# [5] = test system: galium (catchweed bedstraw, Galium aparine); assay: Test A postemergence, visual plant response rating; details: for Galium plant response rating (0 to 100 scale): 500 g ai/ha, postemergence, 0 is no effect, 100 is complete control; for Galium plant response rating: Postemergence, 125 g ai/ha, 0 to 100 scale (0 no effect, 100 complete control)
# In short: (§2)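 Greenhouse pot test in loam–sand soil mix: compound in a surfactant-containing non-phytotoxic solvent applied preemergence (directed soil spray) or postemergence (one- to two-leaf plants, 2–10 cm). Injury scored visually after ~10 days, 0–100.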
# [6] = test system: kochia (Kochia scoparia); assay: Test A postemergence, visual plant response rating; details: for Kochia plant response rating (0 to 100 scale): 500 g ai/ha, postemergence, 0 is no effect, 100 is complete control; for Kochia plant response rating: Postemergence, 125 g ai/ha, 0 to 100 scale (0 no effect, 100 complete control)
# In short: as §2
# [7] = test system: blackgrass (Alopecurus myosuroides); assay: Test A postemergence, visual plant response rating; details: for Blackgrass plant response rating (0 to 100 scale): 500 g ai/ha, postemergence, 0 is no effect, 100 is complete control; for Blackgrass plant response rating: Postemergence, 125 g ai/ha, 0 to 100 scale (0 no effect, 100 complete control)
# In short: as §2
# [8] = test system: foxtail, green (green foxtail, Setaria viridis); assay: Test A postemergence, visual plant response rating; details: for Foxtail, Green plant response rating (0 to 100 scale): 500 g ai/ha, postemergence, 0 is no effect, 100 is complete control; for Foxtail, Green plant response rating: Postemergence, 125 g ai/ha, 0 to 100 scale (0 no effect, 100 complete control)
# In short: as §2
# [9] = test system: corn (Zea mays); assay: Test A postemergence, visual plant response rating; details: for Corn plant response rating (0 to 100 scale): 500 g ai/ha, postemergence, 0 is no effect, 100 is complete control; for Corn plant response rating: Postemergence, 125 g ai/ha, 0 to 100 scale (0 no effect, 100 complete control)
# In short: as §2
# [10] = test system: pigweed (Amaranthus retroflexus); assay: Test A postemergence, visual plant response rating; details: for Pigweed plant response rating (0 to 100 scale): 500 g ai/ha, postemergence, 0 is no effect, 100 is complete control; for Pigweed plant response rating: Postemergence, 125 g ai/ha, 0 to 100 scale (0 no effect, 100 complete control)
# In short: as §2
# [11] = test system: barnyardgrass (Echinochloa crus-galli); assay: Test A postemergence, visual plant response rating; details: for Barnyardgrass plant response rating (0 to 100 scale): 500 g ai/ha, postemergence, 0 is no effect, 100 is complete control; for Barnyardgrass plant response rating: Postemergence, 125 g ai/ha, 0 to 100 scale (0 no effect, 100 complete control)
# In short: as §2
# [12] = test system: Italian ryegrass (Lolium multiflorum); assay: Test A postemergence, visual plant response rating; details: for Ryegrass, Italian plant response rating: 125 g ai/ha, 0 to 100 scale (0 no effect, 100 complete control)
# In short: as §2
# [13] = test system: wheat (Triticum aestivum); assay: Test A postemergence, visual plant response rating; details: for Wheat plant response rating: 0 to 100 scale (0 no effect, 100 complete control)
# In short: as §2
# [14] = test system: ragweed (common ragweed, Ambrosia elatior); assay: Test A postemergence, visual plant response rating; details: for Ragweed plant response rating (0 to 100 scale): 500 g ai/ha, postemergence, 0 is no effect, 100 is complete control; for Ragweed plant response rating: Postemergence, 125 g ai/ha, 0 to 100 scale (0 no effect, 100 complete control)
# In short: as §2
# [15] = test system: kochia (Kochia scoparia); assay: Test A preemergence, visual plant response rating; details: for Kochia plant response rating (0 to 100 scale): approx. 10 days
# In short: as §2
# [16] = test system: foxtail, green (green foxtail, Setaria viridis); assay: Test A preemergence, visual plant response rating; details: for Foxtail, Green plant response rating (0 to 100 scale): approx. 10 days
# In short: as §2
# [17] = test system: pigweed (Amaranthus retroflexus); assay: Test A preemergence, visual plant response rating; details: for Pigweed plant response rating (0 to 100 scale): approx. 10 days
# In short: as §2
# [18] = test system: barnyardgrass (Echinochloa crus-galli); assay: Test A preemergence, visual plant response rating; details: for Barnyardgrass plant response rating (0 to 100 scale): approx. 10 days
# In short: as §2
# [19] = test system: Italian ryegrass (Lolium multiflorum); assay: Test A preemergence, visual plant response rating; details: for Ryegrass, Italian plant response rating (0 to 100 scale): approx. 10 days
# In short: as §2
# [20] = test system: ragweed (common ragweed, Ambrosia elatior); assay: Test A preemergence, visual plant response rating; details: for Ragweed plant response rating (0 to 100 scale): approx. 10 days
# In short: as §2
# [21] = 500 g ai/ha, postemergence, 0 is no effect, 100 is complete control
# [22] = 125 g ai/ha, preemergence, 0 to 100 scale, 0 no effect, 100 complete control
Compound,"Plant response rating, Rice (0 to 100 scale, 0 is no effect, 100 is complete control) [1]","Plant response rating, Ducksalad (0 to 100 scale, 0 is no effect, 100 is complete control) [2]","Plant response rating, Barnyardgrass (0 to 100 scale, 0 is no effect, 100 is complete control) [3]","Plant response rating, Sedge, Umbrella (0 to 100 scale, 0 is no effect, 100 is complete control) [4]",Galium plant response rating (0 to 100 scale) [5],Galium plant response rating [5],Kochia plant response rating (0 to 100 scale) [6],Kochia plant response rating [6],Blackgrass plant response rating (0 to 100 scale) [7],Blackgrass plant response rating [7],"Foxtail, Green plant response rating (0 to 100 scale) [8]","Foxtail, Green plant response rating [8]",Corn plant response rating (0 to 100 scale) [9],Corn plant response rating [9],Pigweed plant response rating (0 to 100 scale) [10],Pigweed plant response rating [10],Barnyardgrass plant response rating (0 to 100 scale) [11],Barnyardgrass plant response rating [11],"Ryegrass, Italian plant response rating (0 to 100 scale) [12, 21]",Ragweed plant response rating (0 to 100 scale) [14],further results
CO/N=C(\c1cccc(C)c1)c1c(O)c(C)nn(C)c1=O [Compound 13],0,0,0,0,100,90,60,20,50,10,60,10,10,0,90,40,50,10,90,70,"Ryegrass, Italian plant response rating ([12]; Postemergence): 80; Wheat plant response rating (0 to 100 scale) [13, 21]: 0; Wheat plant response rating ([13]; Postemergence, 125 g ai/ha): 0; Ragweed plant response rating [14]: 70; Kochia plant response rating (0 to 100 scale) ([15]; 125 g ai/ha Preemergence): 30; Kochia plant response rating (0 to 100 scale) ([15]; 500 g ai/ha Preemergence): 30; Foxtail, Green plant response rating (0 to 100 scale) ([16]; 125 g ai/ha Preemergence): 0; Foxtail, Green plant response rating (0 to 100 scale) ([16]; 500 g ai/ha Preemergence): 20; Pigweed plant response rating (0 to 100 scale) ([17]; 125 g ai/ha Preemergence): 90; Pigweed plant response rating (0 to 100 scale) ([17]; 500 g ai/ha Preemergence): 80; Barnyardgrass plant response rating (0 to 100 scale) ([18]; 125 g ai/ha Preemergence): 0; Barnyardgrass plant response rating (0 to 100 scale) ([18]; 500 g ai/ha Preemergence): 80; Ryegrass, Italian plant response rating (0 to 100 scale) ([19]; 125 g ai/ha Preemergence): 50; Ryegrass, Italian plant response rating (0 to 100 scale) ([19]; 500 g ai/ha Preemergence): 100; Ragweed plant response rating (0 to 100 scale) ([20]; 125 g ai/ha Preemergence): 30; Ragweed plant response rating (0 to 100 scale) ([20]; 500 g ai/ha Preemergence): 100"
CO/N=C(\c1cccc(C)c1C)c1c(O)c(C)nn(C)c1=O [Compound 22],0,0,0,0,60,60,30,20,40,10,0,0,0,0,50,30,10,0,30,50,"Ryegrass, Italian plant response rating ([12]; Postemergence): 10; Wheat plant response rating (0 to 100 scale) [13, 21]: 0; Wheat plant response rating ([13]; Postemergence, 125 g ai/ha): 0; Ragweed plant response rating [14]: 40; Kochia plant response rating (0 to 100 scale) ([15]; 125 g ai/ha Preemergence): 10; Kochia plant response rating (0 to 100 scale) ([15]; 500 g ai/ha Preemergence): 10; Foxtail, Green plant response rating (0 to 100 scale) ([16]; 125 g ai/ha Preemergence): 0; Foxtail, Green plant response rating (0 to 100 scale) ([16]; 500 g ai/ha Preemergence): 0; Pigweed plant response rating (0 to 100 scale) ([17]; 125 g ai/ha Preemergence): 30; Pigweed plant response rating (0 to 100 scale) ([17]; 500 g ai/ha Preemergence): 90; Barnyardgrass plant response rating (0 to 100 scale) ([18]; 125 g ai/ha Preemergence): 0; Barnyardgrass plant response rating (0 to 100 scale) ([18]; 500 g ai/ha Preemergence): 0; Ryegrass, Italian plant response rating (0 to 100 scale) ([19]; 125 g ai/ha Preemergence): 10; Ryegrass, Italian plant response rating (0 to 100 scale) ([19]; 500 g ai/ha Preemergence): 30; Ragweed plant response rating (0 to 100 scale) ([20]; 125 g ai/ha Preemergence): 50; Ragweed plant response rating (0 to 100 scale) ([20]; 500 g ai/ha Preemergence): 90"
CON=C(c1cccc(Cl)c1)c1c(O)c(C)n[nH]c1=O (mixture of isomers) [Compound 143],0,0,0,0,0,0,20,0,40,10,40,20,20,0,20,0,40,10,60,0,"Ryegrass, Italian plant response rating (0 to 100 scale) ([12]; Postemergence, rate not given, approx. 10 days): 20; Wheat plant response rating ([13]; Postemergence, 500 g ai/ha): 20; Wheat plant response rating (0 to 100 scale) ([13]; Postemergence, approx. 10 days): 0; Ragweed plant response rating [14]: 0; Kochia plant response rating [15, 22]: 0; Kochia plant response rating (0 to 100 scale) ([15]; 500 g ai/ha Preemergence): 10; Foxtail, Green plant response rating [16, 22]: 30; Foxtail, Green plant response rating (0 to 100 scale) ([16]; 500 g ai/ha Preemergence): 80; Pigweed plant response rating [17, 22]: 0; Pigweed plant response rating (0 to 100 scale) ([17]; 500 g ai/ha Preemergence): 0; Barnyardgrass plant response rating [18, 22]: 0; Barnyardgrass plant response rating (0 to 100 scale) ([18]; 500 g ai/ha Preemergence): 30; Ryegrass, Italian plant response rating [19, 22]: 20; Ryegrass, Italian plant response rating (0 to 100 scale) ([19]; 500 g ai/ha Preemergence): 50; Ragweed plant response rating [20, 22]: 0; Ragweed plant response rating (0 to 100 scale) ([20]; 500 g ai/ha Preemergence): 0"

# From patent US20210045385A1, “PYRIDAZINONE-SUBSTITUTED KETOXIMES AS HERBICIDES” (FMC Corporation, priority 2018, published 2021)
